3 molecules from paper PMC9607644, “Glycoconjugation of Quinoline Derivatives Using the C-6 Position in Sugars as a Strategy for Improving the Selectivity and Cytotoxicity of Functionalized Compounds” (Molecules, 2022) can be followed below.

One assay deals with ctDNA. The experiment in a line: Intercalation study, UV-Vis absorption titration with ctDNA. As to conditions: 50 µM glycoconjugate, ctDNA 3 to 300 µM, Tris-HCl pH 7.5, 2 h 37 °C. In kind it is binding, calf. On the procedure:
Due to the steric and electron features, quinoline-based compounds are well-known DNA intercalating agents. Therefore, the antiproliferative action of quinoline-related compounds can be related among others to intercalating between two adjacent base pairs of duplex DNA and inhibiting nucleic acid synthesis. […] The binding of the A-2 and E-2 to ctDNA has been characterized through absorption titration, which is an effective technique for DNA intercalation studies. The experiments were carried out for a constant concentration of glycoconjugates with increasing concentrations of ctDNA.
For the DNA binding studies, all experiments were carried out in molecular biology grade Tris-HCl buffer at pH 7.5 (EURx, Poland). The purity of the calf thymus DNA (ctDNA) (Sigma-Aldrich, St. Louis, MO, USA) was determined by measuring the ratio of UV absorbance at 260 and 280 nm. Here, the ratio was in the range of 1.8–1.9, indicating the DNA was sufficiently free from protein. The concentration of ctDNA was determined from the absorbance at 260 nm and using a molar absorption coefficient ε = 6600 M^−1 cm^−1 [68]. […] The samples were incubated for 2 h at 37 °C with gently shaking and the absorption spectra were measured using a UV–Vis-NIR spectrophotometer JASCO V-570 (Tokyo, Japan) in the range of 200–400 nm.

Assay [1] deals with HCT-116 cells. The experiment in a line: Clonogenic assay, HCT-116. In kind it is cell-based, human. The settings on record: IC50 concentration 72 h, then 10 days in fresh medium. Here is the method:
(§1) MCF-7 and HCT-116 cells were treated with type A glycoconjugates and their ability to proliferate was observed. […] The formed colonies were stained with crystal violet (Figure 5).
(§2) To determine the number of colonies forming by cells after exposure to the test compounds, a clonogenic assay was performed as reported in the literature. The cells were seeded into 6-well plates at a density of 1 × 10^5 (HCT-116) or 2 × 10^5 (MCF-7, NHDF-Neo) per well (3 mL) and allowed to attach for 24 h under standard conditions with 5% CO2 at 37 °C. The following day, the medium was removed and cells were treated with solutions of test compounds in fresh medium at a dose equal to their IC50 values. Control cells were grown with fresh medium supplemented with 0.5% DMSO. After 72 h of incubation, the cells were collected by trypsinization and then reseeded into new 6-well plates at a density of 1000 cells/well/3 mL. The plates with cells were incubated for 10 days under standard conditions with 5% CO2 at 37 °C. After this time, the medium was removed and the cells were washed with PBS, fixed with ice-cold ethanol (-20 °C) for 3 min, and washed again with PBS. Finally, cells were stained with crystal violet (0.01% in H2O; Sigma-Aldrich, Taufkirchen, Germany) for 20 min. The plates were then washed with H2O and allowed to air-dry.

Assay [2] deals with MCF-7 cells. The experiment in a line: Clonogenic assay, MCF-7. The settings on record: IC50 concentration 72 h, then 10 days in fresh medium. Type of assay: cell-based, human. On the procedure: as §1, §2
For assay [3], the system named is HCT-116 cells. The experiment in a line: Wound healing assay, HCT-116. In kind it is cell-based, human. The settings on record: IC50 concentration, observed for 72 h. Here is the method: (§3) This experiment consisted in making a “wound” in a confluent monolayer of HCT-116 and MCF-7 cells, which were next treated with the test compounds at their IC50 concentrations. […] In the control, cell migration from the edges of the wound is visible, gradually filling the gap. After 72 h, the wounds are almost completely covered with cells. In the same way, cell migration is observed in healthy NHDF cells.
(§4) To analyze the migration properties of cells exposed to test compounds, a wound-healing assay was performed as reported in the literature. The cells were seeded into 6-well plates at a density of 3 × 10^5 (HCT-116) or 4 × 10^5 (MCF-7, NHDF-Neo) per well (3 mL) and allowed to attach for 24 h under standard conditions with 5% CO2 at 37 °C. After forming a confluent monolayer, a linear scratch in each sample with a 200 µL pipette tip was made and the first photo at time zero was taken. The cells were washed with PBS and then treated with solutions of test compounds in a fresh medium at a dose equal to their IC50 values. Control cells were grown with fresh medium supplemented with 0.5% DMSO. The cells were incubated and monitored for 72 h under standard conditions with 5% CO2 at 37 °C. Cell monitoring and photos were taken using Live Cell Movie Analyzer, JuLI™ Br & FL (NanoEnTek Inc., Seoul, Korea).

Assay [4] relates to MCF-7 cells. The experiment in a line: Wound healing assay, MCF-7. In kind it is cell-based, human. As to conditions: IC50 concentration, observed for 72 h. Here is the method: as §3, §4
The subject of another assay is NHDF-Neo cells. The assay is described as follows: Cell cycle analysis by flow cytometry, NHDF-Neo. In kind it is cell-based, human. As to conditions: IC50 dose, 24 h. The text has this:
After determining the type of cell death caused by the test compounds, the flow cytometry technique was used to study their influence on potential changes in the course of the cell cycle of the HCT-116, MCF-7, and NHDF-Neo lines. The cell cycle is the sequence of growth and division of cells, both normal and cancerous. This process begins from the resting phase (G0) through the active growth phases (G1, S, G2), leading to mitosis (M) in which the cell’s nucleus divides. […] After this time, cells were harvested and treated with a buffer to lysate the cells and isolate the cell nuclei. Propidium iodide was used to assess the amount of DNA in particular phases of the cell cycle. Histograms of DNA content in cells are presented in the Supplementary Materials (Figure S74).
The cell cycle and the type of cell death induced by the test compounds were measured by using flow cytometry according to the manufacturer’s protocol. The cells were seeded into 6-well plates at a density of 3 × 10^5 (HCT-116) or 4 × 10^5 (MCF-7, NHDF-Neo) per well (3 mL) and allowed to attach for 24 h under standard conditions with 5% CO2 at 37 °C. The following day, the medium was removed and cells were treated with solutions of test compounds in fresh medium at a dose equal to their IC50 values. Control cells were grown with fresh medium supplemented with 0.5% DMSO. After 24 h of incubation, the cells were collected by trypsinization. Then, samples were centrifuged (3 min, 2000 rpm, RT) and washed with PBS, after which the cells were centrifuged again (3 min, 2000 rpm, RT) and the supernatant was carefully removed. The resulting precipitate contained cells, which were used for flow cytometry experiments.
For cell cycle analysis, the cells were suspended in 300 μL of hypotonic buffer (consisting of: sodium citrate dihydrate 1 g/L, propidium iodide (PI) 1 mg/mL, RNAse A 10 mg/mL (EURx, Gdańsk, Poland), Triton X-100 1:9), mixed gently and incubated in the dark at room temperature for 20–30 min. […]
A general note: In flow cytometry, cells or beads pass a laser one at a time.

Structures are written as SMILES.

As for `OC[C@H]1O[C@@H](n2cc(COc3cccc4cccnc34)nn2)[C@H](O)[C@@H](O)[C@@H]1O` [Compound E-2, reference compound], the “binding to ctDNA, change of UV-Vis absorption spectrum” value with ctDNA is “hypochromic and bathochromic effects”.

For `OC1O[C@H](Cn2cc(COc3cccc4cccnc34)nn2)[C@@H](O)[C@H](O)[C@H]1O` (stereo partly drawn) [Compound A-2], the “clonogenic potential, HCT-116” value in the assay on HCT-116 cells [1] is “able to decrease the clonogenic potential”. For the same molecule, the “clonogenic potential, MCF-7” value in the assay with MCF-7 cells [2] is “able to decrease the clonogenic potential”. Besides, the “cell migration, HCT-116” value in the assay with HCT-116 cells [3] was “significantly slower migration”. Besides, the “cell migration, MCF-7” value with MCF-7 cells [4] is listed as “significantly slower migration”. Further, the “cell cycle phase distribution in words, NHDF-Neo” value in the assay on NHDF-Neo cells is “slightly decreased the number of cells in the G2/M phase with a simultaneous slight increase in the percentage of cells in the G0/G1 phase”. Also, the “binding to ctDNA, change of UV-Vis absorption spectrum” value in the assay on ctDNA was “hypochromic and bathochromic effects”.

Regarding `CC(=O)OC1O[C@H](Cn2cc(COc3cccc4cccnc34)nn2)[C@@H](OC(C)=O)[C@H](OC(C)=O)[C@H]1OC(C)=O` (stereo partly drawn) [Compound A-1], the “clonogenic potential, HCT-116” value in the assay on HCT-116 cells [1] is recorded as “able to decrease the clonogenic potential”. Also, the “clonogenic potential, MCF-7” value with MCF-7 cells [2] is given as “able to decrease the clonogenic potential”. Further, the “cell migration, HCT-116” value with HCT-116 cells [3] is listed as “significantly slower migration”. In addition, the “cell migration, MCF-7” value with MCF-7 cells [4] is given as “significantly slower migration”. In addition, the “cell cycle phase distribution in words, NHDF-Neo” value with NHDF-Neo cells is “slightly decreased the number of cells in the G2/M phase with a simultaneous slight increase in the percentage of cells in the G0/G1 phase”.
